# Read-outs that look alike come from different tables or passages of the source.
# Tests used:
# Test in all cases: minimum growth-inhibitory concentration (MIC) in vitro
# [1] = system: Enterobacter Cloacae G-0005; format: cell-based
# [2] = system: Streptocuccus faecalis W-75; format: cell-based
# [3] = system: Pseudomonas aeruginosa GN-10362; format: cell-based; conditions: GN10362
# Proteus vulgais GN-76 = format: cell-based
# [4] = system: Klebsiella pneumoniae GN-118; format: cell-based; conditions: GN118
# Escherichia coli No.29 = format: cell-based
# Proteus rettgeri J-0026 = format: cell-based; conditions: Providencia rettgeri, J0026
# [5] = system: Salmonella enteritidis No.11; format: cell-based; conditions: Salmonella enterica
# [6] = system: Escherichia coli NIHJ JC-2; format: cell-based
# [7] = system: Staphylococcus aureus 606 E-25; format: cell-based; conditions: 606E25
# [8] = system: Pseudomonas aeruginosa E-2; format: cell-based; conditions: E2
# [9] = system: Enterobacter Cloacae G-0008; format: cell-based
# Proteus morganii 1510 = format: cell-based; conditions: Morganella morganii
# [10] = system: Klebsiella pneumoniae GN-69; format: cell-based
# [11] = system: Pseudomonas aeruginosa MB-3833; format: cell-based; conditions: MB3833
# [12] = system: Serratia marcescens GN-10857; format: cell-based; conditions: GN10857
# [13] = system: Proteus vulgais GN-76/C-1; conditions: Proteus vulgaris, GN76, read-out: MIC-value
# [14] = system: Serratia marcescens GN-629; format: cell-based; conditions: GN629
# Proteus rettgeri GN-624 = format: cell-based; conditions: Providencia rettgeri, GN624
# Escherichia coli ML1410 = format: cell-based
# [15] = system: Salmonella typhimurium LT-2; format: cell-based; conditions: Salmonella enterica
# [16] = system: Staphylococcus aureus 209P JC-1; format: cell-based
# [17] = system: Staphylococcus aureus 606; format: cell-based
# [18] = NIHJJC2, Escherichia coli NIHJ JC-2, in vitro, read-out: MIC-value
# [19] = GN69, Klebsiella pneumoniae GN-69, in vitro, read-out: MIC-value
Structure (SMILES),MIC [1] [µg/mL],MIC [2] [µg/mL],MIC [3] [µg/mL],MIC (Proteus vulgais GN-76) [µg/mL],MIC [4] [µg/mL],MIC (Escherichia coli No.29) [µg/mL],MIC (Proteus rettgeri J-0026) [µg/mL],MIC [5] [µg/mL],MIC [7] [µg/mL],MIC [8] [µg/mL],MIC [9] [µg/mL],MIC (Proteus morganii 1510) [µg/mL],MIC [11] [µg/mL],MIC [12] [µg/mL],MIC [13] [µg/mL],MIC [14] [µg/mL],MIC (Proteus rettgeri GN-624) [µg/mL],MIC (Escherichia coli ML1410) [µg/mL],MIC [15] [µg/mL],MIC [16] [µg/mL],also measured
Nc1nc(/C(=N/OC(CF)C(=O)O)C(=O)N[C@@H]2C(=O)N3C(C(=O)[O-])=C(CSc4cc[n+](CCF)cc4)CS[C@H]23)cs1 (stereo partly shown) [Example 6],0.05,3.13,3.13,0.05,< 0.025,0.1,0.2,0.05,3.13,1.56,0.1,0.78,1.56,1.56,0.1,0.2,< 0.025,0.1,< 0.025,1.56,"MIC ([6]; Escherichia coli, NIHJJC2, read-out: MIC-value): 0.05 µg/mL; MIC ([10]; Klebsiella pneumoniae, GN69, read-out: MIC-value): < 0.025 µg/mL; MIC [17]: 3.13 µg/mL"
"C[C@@H](O/N=C(\C(=O)N[C@@H]1C(=O)N2C(C(=O)[O-])=C(CSc3cc[n+](CCF)cc3)CS[C@H]12)c1csc(N)n1)C(=O)O [Example 2, (6R,7R)-7-[(Z)-2-(2-Aminothiazol-4-yl)-2-{(1R)-carboxyethoxyimino}acetamido]-3-[{1-(2-fluoroethyl)pyridinium}-4-ylthiomethyl]-ceph-3-em-4-carboxylate]",0.2,3.13,3.13,0.1,0.05,0.1,0.2,< 0.025,6.25,3.13,0.2,1.56,3.13,3.13,0.1,0.39,0.1,0.2,0.05,3.13,"MIC [6, 18]: 0.1 µg/mL; MIC [10, 19]: 0.05 µg/mL; MIC [17]: 6.25 µg/mL"
"C[C@H](O/N=C(\C(=O)N[C@@H]1C(=O)N2C(C(=O)[O-])=C(CSc3cc[n+](C)cc3)CS[C@H]12)c1csc(N)n1)C(=O)O [Example 7, (6R,7R)-7-[(Z)-2-(2-Aminothiazol-4-yl)-2-{(1S)-carboxyethoxyimino}acetamid]-3-(1-methylpyridinium-4-ylthiomethyl)-ceph-3-em-4-carboxylate]",0.05,1.56,0.78,0.025,< 0.025,0.1,0.1,< 0.025,3.13,0.78,0.1,1.56,0.78,0.39,0.05,0.1,< 0.025,0.1,< 0.025,1.56,"MIC [6, 18]: 0.1 µg/mL; MIC [10, 19]: < 0.025 µg/mL; MIC [17]: 3.13 µg/mL"

# Now from value to molecule, other results behind:
MIC [1] [µg/mL],MIC [2] [µg/mL],MIC [3] [µg/mL],MIC (Proteus vulgais GN-76) [µg/mL],MIC [4] [µg/mL],MIC (Escherichia coli No.29) [µg/mL],MIC (Proteus rettgeri J-0026) [µg/mL],MIC [5] [µg/mL],MIC [7] [µg/mL],MIC [8] [µg/mL],MIC [9] [µg/mL],MIC (Proteus morganii 1510) [µg/mL],MIC [11] [µg/mL],MIC [12] [µg/mL],MIC [13] [µg/mL],MIC [14] [µg/mL],MIC (Proteus rettgeri GN-624) [µg/mL],MIC (Escherichia coli ML1410) [µg/mL],MIC [15] [µg/mL],MIC [16] [µg/mL],Structure (SMILES),also measured
0.05,3.13,1.56,0.05,< 0.025,0.1,0.1,< 0.025,3.13,1.56,0.1,1.56,1.56,0.78,0.1,0.1,0.05,0.1,< 0.025,3.13,"CC(O/N=C(\C(=O)N[C@@H]1C(=O)N2C(C(=O)[O-])=C(CSc3cc[n+](CCF)cc3)CS[C@H]12)c1csc(N)n1)C(=O)O (stereo partly drawn) [Example 1, (6R,7R)-7-{(Z)-2-(2-Aminothiazol-4-yl)-2-(1-carboxyethoxyimino)acetamido}-3-[{1-(2-fluoroethyl)pyridinium}-4-ylthiomethyl]-ceph-3-em-4-carboxylate]","MIC [6, 18]: 0.1 µg/mL; MIC [10, 19]: < 0.025 µg/mL; MIC [17]: 3.13 µg/mL"
0.05,1.56,1.56,< 0.025,< 0.025,0.1,0.1,< 0.025,3.13,1.56,0.1,1.56,1.56,0.78,0.05,0.2,0.05,0.1,< 0.025,1.56,"C[C@H](O/N=C(\C(=O)N[C@@H]1C(=O)N2C(C(=O)[O-])=C(CSc3cc[n+](CCF)cc3)CS[C@H]12)c1csc(N)n1)C(=O)O [Example 3, (6R,7R)-7-[(Z)-2-(2-Aminothiazol-4-yl)-2-{(1S)-carboxyethoxyimino}acetamido]-3-[{1-(2-fluoroethyl)pyridinium}-4-ylthiomethyl]-ceph-3-em-4-carboxylate]","MIC [6, 18]: 0.1 µg/mL; MIC [10, 19]: 0.05 µg/mL; MIC [17]: 3.13 µg/mL"

# Reference: patent publication US4898858A, “Cephalosporin derivatives and antibiotics containing the same” (Meiji Seika Kaisha Ltd., priority 1985, dated 1990)
